Test results as given in patent US10330678B2, “Methods and systems for modulating hormones and related methods, agents and compositions” (California Institute of Technology, priority 2010, dated 2019).
Structures can show the parent of a compound that is named as a salt. Where two headings read alike, the source gives them in different places.

How the values were obtained:
NCI-H716 cells = experiment: GLP-1 release from endocrine cell line NCI-H716 (GLP-1 RIA kit); type: cell-based
Description: Endocrine cell lines of NCI-H716 cells were used for testing release of GLP-1 triggered by various possible ligands.
NCI-H716 cells were incubated in serum-free DME/F12 media containing vehicle (0.01% DMSO) with a candidate ligand at the indicated concentrations. Secretion active GLP-1 in media was measured with GLP-1 RIA kit (Linco Research, Missouri, USA). The experiments for all groups have been conducted in duplicates.

hTAS2R47 = target: T1, hTAS2R47 (Homo sapiens, UniProt P59541); details: observed by Pronin et al. [Pronin 2004]; cited from earlier work
T1 sequence (P59541 1-319): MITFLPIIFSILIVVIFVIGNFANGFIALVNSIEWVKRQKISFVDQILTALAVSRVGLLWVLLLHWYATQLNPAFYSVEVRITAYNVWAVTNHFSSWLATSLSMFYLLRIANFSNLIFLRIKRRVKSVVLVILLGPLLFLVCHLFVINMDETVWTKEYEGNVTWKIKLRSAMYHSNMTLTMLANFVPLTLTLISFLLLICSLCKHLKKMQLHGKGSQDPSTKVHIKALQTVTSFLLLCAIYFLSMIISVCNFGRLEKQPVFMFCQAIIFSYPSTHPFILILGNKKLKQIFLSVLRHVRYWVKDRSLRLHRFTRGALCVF

STC-5 cells = details: 30 minutes incubation, PTC at various concentrations, versus vehicle (FIGS. 24A, 24B)
Description: In GLP-1 release experiments, selected endocrine cell lines of STC-5 cells or NCI-H716 cells were used for testing release of GLP-1 triggered by various possible ligands. Endocrine cells were incubated in serum-free DME/F12 media containing vehicle (0.01% DMSO) and a candidate ligand of certain concentration and for a certain period of incubation time. After incubation, secretion active GLP-1 in media was measured with GLP-1 RIA kit (Linco Research®, Missouri, USA).
Secretion of active GLP-1 in media was measured with GLP-1 RIA kit (Linco Research, Missouri, USA). The experiments for all groups have been conducted in duplicates.

male Sprague-Dawley rats = system: male Sprague-Dawley rats
Description: The rats were then euthanized 45 min later and removed blood via intracardiac puncture and measured PYY in the blood by a recently modified radioimmunoassay using CURE antibody 9153 (Gift of J Reeve, University of California, Los Angeles.).

bitter taste = details: average; cited from earlier work
[1] = NCI-H716 cells, ligand concentration 10 μm, duplicates, control 58.47
[2] = summary of Table 2, versus control

C=CCSC [Allyl methyl sulfide]
GLP-1 (pmol/mg protein) (NCI-H716 cells; [1]): 91.547 pmol/mg protein | effect on release of GLP-1 from NCI-H716 cells (in words) (NCI-H716 cells; [2]): increase the release of GLP-1

COc1ccc2cc3[n+](cc2c1OC)CCc1cc2c(cc1-3)OCO2 [Berberine chloride]
GLP-1 (pmol/mg protein) (NCI-H716 cells; [1]): 86.41 pmol/mg protein | effect on release of GLP-1 from NCI-H716 cells (in words) (NCI-H716 cells; [2]): increase the release of GLP-1

CCCC(=O)O [Butyrate, reference compound]
GLP-1 (pmol/mg protein) (NCI-H716 cells; NCI-H716 cells, ligand concentration 2.5 mM, duplicates, control 58.47): 100.77 pmol/mg protein

O=C1NS(=O)(=O)c2cccc([N+](=O)[O-])c21 [Compound 4NS, 4-Nitro saccharin]
activation of hTAS2R47 (in words) (hTAS2R47): very weak inverse agonist

O=C1NS(=O)(=O)c2cc([N+](=O)[O-])ccc21 [Compound 6NS, 6-Nitro saccharin]
activation of hTAS2R47 (in words) (hTAS2R47): activated the receptor to a lesser extent

c1c2c(cc3c1OCO3)-c1cc3ccc4c(c3c[n+]1CC2)OCO4 [Coptisine chloride]
GLP-1 (pmol/mg protein) (NCI-H716 cells; [1]): 121.35 pmol/mg protein | effect on release of GLP-1 from NCI-H716 cells (in words) (NCI-H716 cells; [2]): increase the release of GLP-1

COc1cc(/C=C/C(=O)CC(=O)/C=C/c2ccc(O)c(OC)c2)ccc1O [Curcumin]
GLP-1 (pmol/mg protein) (NCI-H716 cells; [1]): 61.52 pmol/mg protein

CC[N+](CC)(CC(=O)Nc1c(C)cccc1C)Cc1ccccc1 [Denatonium]
activation of hTAS2R47 (in words) (hTAS2R47): activated strongest

O=c1oc2c(O)c(O)cc3c(=O)oc4c(O)c(O)cc1c4c23 [Ellagic acid]
GLP-1 (pmol/mg protein) (NCI-H716 cells; [1]): 77.25 pmol/mg protein | effect on release of GLP-1 from NCI-H716 cells (in words) (NCI-H716 cells; [2]): increase the release of GLP-1

CCCCCCCCCCCC1=C(O)C(=O)C=C(O)C1=O [Embelin]
GLP-1 (pmol/mg protein) (NCI-H716 cells; [1]): 83.55 pmol/mg protein

O=C(O[C@@H]1Cc2c(O)cc(O)cc2O[C@@H]1c1cc(O)c(O)c(O)c1)c1cc(O)c(O)c(O)c1 [Epigallocatechin gallate]
GLP-1 (pmol/mg protein) (NCI-H716 cells; NCI-H716 cells, ligand concentration 1 μm, duplicates, control 58.47): 91.15 pmol/mg protein | effect on release of GLP-1 from NCI-H716 cells (in words) (NCI-H716 cells; [2]): increase the release of GLP-1

CC1(C)[C@@H](O[C@H]2O[C@H](C(=O)O)[C@@H](O)[C@H](O)[C@H]2O[C@@H]2O[C@H](C(=O)O)[C@@H](O)[C@H](O)[C@H]2O)CC[C@]2(C)[C@H]3C(=O)C=C4[C@@H]5C[C@@](C)(C(=O)O)CC[C@]5(C)CC[C@@]4(C)[C@]3(C)CC[C@@H]12 [Glycyrrhizic acid ammonium salt]
GLP-1 (pmol/mg protein) (NCI-H716 cells; [1]): 71.95 pmol/mg protein | effect on release of GLP-1 from NCI-H716 cells (in words) (NCI-H716 cells; [2]): increase the release of GLP-1

CC(C)=CCC[C@]1(C)[C@@H](CC=C(C)C)C[C@@]2(CC=C(C)C)C(=O)[C@]1(C(=O)C(C)C)C(=O)C(CC=C(C)C)=C2O [Hyperforin]
GLP-1 (pmol/mg protein) (NCI-H716 cells; NCI-H716 cells, ligand concentration 5 μg/ml, duplicates, control 58.47): 104.87 pmol/mg protein | effect on release of GLP-1 from NCI-H716 cells (in words) (NCI-H716 cells; [2]): increase the release of GLP-1

NC(=S)Nc1ccccc1 [PTC, Phenylthiocarbamide]
GLP-1 (pmol/mg protein) (NCI-H716 cells): 98.73 pmol/mg protein | effect on release of GLP-1 from NCI-H716 cells (in words) (NCI-H716 cells): increase the release of GLP-1 | effect on GLP-1 release from STC-5 cells (in words) (STC-5 cells): large effect | change of PYY levels versus saline gavaged rats (in words) (male Sprague-Dawley rats; 5 mM PTC in 5 ml saline by gastric gavage, 45 min): doubling | PYY in the blood (male Sprague-Dawley rats; 5 mM PTC in 5 ml saline by gastric gavage, 45 min later, n=5, saline rats 71+/−35 pM): 154 ± 44 pM | volume of fluid remaining in the stomachs (male Sprague-Dawley rats; at sacrifice 45 min after gavage of 5 ml, saline-treated rats less than 0.5 ml): 1 to 2 mL

CC(=O)c1c(O)c(C)c(O)c(Cc2c(O)c3c(c(C(=O)/C=C/c4ccccc4)c2O)OC(C)(C)C=C3)c1O [Rottlerin]
GLP-1 (pmol/mg protein) (NCI-H716 cells; NCI-H716 cells, ligand concentration 0.05%, duplicates, control 58.47): 111.18 pmol/mg protein | effect on release of GLP-1 from NCI-H716 cells (in words) (NCI-H716 cells; [2]): increase the release of GLP-1

C=C[C@H]1C[N@@]2CC[C@H]1C[C@H]2[C@H](O)c1ccnc2ccc(OC)cc12 [quinine]
threshold for stimulation of bitter taste (bitter taste): 8 µM
